The source of these data is US20190322632A1, “HRI ACTIVATORS USEFUL FOR THE TREATMENT OF CARDIOMETABOLIC DISEASES” (UNIVERSITAT DE BARCELONA, priority 2016, published 2019).

One data set concerns FGF21. In words: FGF21 expression in hepatocytes (quantitative real-time RT-PCR). The data set is classed as cell-based, human. To be noted: Huh-7 hepatocytes, 24 h, 10 μM; FIG. 9. Here is the method:
Human Huh-7 hepatocytes were incubated for 24 h in the absence (Control, CT) or in the presence of compounds (10 μM). Assessment by quantitative real-time RT-PCR of FGF21. Data are presented as the mean±SD (n=4 per group). ***p<0.001 and **p<0.01 vs CT. ^###p<0.001, ^##p<0.01 and ^#p<0.05 vs BTCtFPU. ^††p<0.01 and ^†p<0.05 vs BTdCPU. BTCtFPU=1-(benzo[d][1,2,3]thiadiazol-6-yl)-3-(4-chloro-3-(trifluoromethyl)phenyl)urea (compound (3) in Chen T. et al., ibid.).
Background: Quantitative PCR measures a nucleic acid by following its amplification.

Another data set has as its target T1, HRI (Homo sapiens, UniProt Q9BQI3).
T1 construct: endogenous in cells; host or cells: Huh-7 human hepatic cells
In words: HRI phosphorylation in human Huh-7 hepatic cells (Western-blot, ratio phosphorylated/total HRI). The data set is classed as cell-based. To be noted: Huh-7 cells, 24 h, 10 μM; for ratio phosphorylated/total HRI: vs vehicle (DMSO) control, FIG. 1, FIG. 2. The source says: Data are presented as the mean±SD (n=4). *p<0.05 vs. control (CT) cells. ^#p<0.05 vs. BTdCPU-treated cells. BTdCPU=1-(benzo[d][1,2,3]thiadiazol-6-yl)-3-(3,4-dichlorophenyl)urea (compound (2) in Chen T. et al., ibid.).
Data are presented as the mean±SD (n=4). ***p<0.001 and *p<0.05 vs. control (CT) cells. ^#p<0.05 vs. BTdCPU-treated cells. Compound I-2 (1-(4-chloro-3-(trifluoromethyl)phenyl)-3-(4-chloro-3-(trifluoromethyl)phenyl)urea is not part of the present invention, but it has been introduced in some figures for comparative purposes.
HRI is activated by autophosphorylation and this has been used for evaluating its activation. In fact, the hyperphosphorylation of HRI is accompanied by an increase of its eIF2α kinase activity (cf. Lu L. et al., “Translation initiation control by heme-regulated eukaryotic initiation factor 2a kinase in erythroid cells under cytoplasmic stresses”, Mol. Cell. Biol., 2001, vol. 21, pp. 7971-7980). Therefore, HRI protein constitutively exists as the native nonphosphorylated 76-kDa species and/or the autoactivated/autophosphorylated 92-kDa, although the relative abundance of each HRI species tends to vary depending on the cells examined (cf. Acharya P. et al., “Hepatic heme-regulated inhibitor (HRI) eukaryotic initiation factor 2a kinase: A protagonist of heme-mediated translational control of CYP2B enzymes and a modulator of basal endoplasmic reticulum stress tone”, Mol. Pharmacol, 2010, vol. 77, pp. 575-592). […] Thus Huh-7 cells were incubated for 24 h with vehicle (DMSO, CT cells) or 10 μM of each of the assayed compound. The effects of these compounds were compared to the well-known HRI activator BTdCPU.

In a further data set the test system is eIF2α. Briefly: eIF2α phosphorylation in human Huh-7 hepatic cells (Western-blot). To be noted: Huh-7 cells, 24 h, 10 μM, compared to BTdCPU; FIG. 3, FIG. 4. The data set is classed as cell-based. The source says: Data are presented as the mean±SD (n=4). **p<0.01 and *p<0.05 vs. control (CT) cells. ^##p<0.01 and ^#p<0.05 vs. BTdCPU-treated cells.
Data are presented as the mean±SD (n=4). *p<0.05 vs. control (CT) cells.
HRI is a kinase that phosphorylates eukaryotic Initiation Factor 2α (eIF-2a) at its Ser 51 residue to execute protein synthesis regulation and thereby HRI activators cause the phosphorylation of eIF2α as previously described (Chen T, et al., ibid). To confirm whether the new synthesized compounds were able to activate the HRI eIF2α kinase inventors examined the eIF2α phosphorylation caused by these compounds compared to the well-known HRI eIF2α kinase activator BTdCPU. Human Huh-7 hepatocytes were incubated for 24 h with vehicle (DMSO, CT cells) or 10 μM of each of the assayed compounds. eIF2α phosphorylation was determined by Western-blot.

The melting point is the temperature of the solid-liquid transition.

T1 sequence (Q9BQI3 whole entry): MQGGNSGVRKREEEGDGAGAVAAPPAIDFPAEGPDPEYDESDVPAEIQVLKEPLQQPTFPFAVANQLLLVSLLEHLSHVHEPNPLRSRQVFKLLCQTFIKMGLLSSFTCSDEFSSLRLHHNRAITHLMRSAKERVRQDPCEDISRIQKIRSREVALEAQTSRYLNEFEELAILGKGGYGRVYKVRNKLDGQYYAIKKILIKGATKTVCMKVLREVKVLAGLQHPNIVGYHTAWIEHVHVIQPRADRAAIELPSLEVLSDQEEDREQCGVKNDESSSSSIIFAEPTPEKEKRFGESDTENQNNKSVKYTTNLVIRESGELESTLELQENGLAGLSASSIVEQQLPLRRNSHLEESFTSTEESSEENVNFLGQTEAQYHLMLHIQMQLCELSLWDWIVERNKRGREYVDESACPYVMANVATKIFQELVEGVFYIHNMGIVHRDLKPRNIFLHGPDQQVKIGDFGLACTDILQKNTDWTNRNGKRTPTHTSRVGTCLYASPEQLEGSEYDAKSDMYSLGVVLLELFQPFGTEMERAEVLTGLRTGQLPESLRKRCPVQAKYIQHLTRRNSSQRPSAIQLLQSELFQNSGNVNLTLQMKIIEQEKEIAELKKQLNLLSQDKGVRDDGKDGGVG

The molecule `O=C(Nc1ccc(S(F)(F)(F)(F)F)cc1)Nc1cccc(S(F)(F)(F)(F)F)c1` [compound I-37, 1-(3-(Pentafluoro-λ^6-sulfanyl)phenyl)-3-(4-(pentafluoro-λ^6-sulfanyl)phenyl)urea] came in with a melting point of 216 to 217 °C. Further, in the data set on FGF21, the “FGF21 expression compared with BTCtFPU” value is listed as “significant higher increase than compound BTCtFPU” and the “FGF21 expression compared with BTdCPU” value is given as “significant higher increase in FGF21 expression than compound BTdCPU”.
`O=C(Nc1ccc2nnsc2c1)Nc1cc(S(F)(F)(F)(F)F)ccc1Cl` [compound I-27, 1-(Benzo[d][1,2,3]thiadiazol-6-yl)-3-(2-chloro-5-(pentafluoro-λ^6-sulfanyl)phenyl)urea]: the melting point was 227 °C. Also, at HRI, the “ratio phosphorylated/total HRI” value is given as “increased the ratio phosphorylated/total HRI”. In the data set with eIF2α, the eIF2α phosphorylation entry is given as “marked increase in eIF2α phosphorylation, higher than the observed with BTdCPU”.
`O=C(Nc1ccc(Cl)c(S(F)(F)(F)(F)F)c1)Nc1ccc(Cl)c(S(F)(F)(F)(F)F)c1` [compound I-38, 1,3-Bis(4-chloro-3-(pentafluoro-λ^6-sulfanyl)phenyl)urea]: the melting point lay within 237 to 238 °C. Also, in the data set with FGF21, the “FGF21 expression compared with BTCtFPU” value was “significant higher increase than compound BTCtFPU” and the “FGF21 expression compared with BTdCPU” value is “significant higher increase in FGF21 expression than compound BTdCPU”.
`O=C(Nc1ccc(Cl)c(C(F)(F)F)c1)Nc1cc(S(F)(F)(F)(F)F)ccc1Cl` [compound I-33, 1-(4-Chloro-3-(trifluoromethyl)phenyl)-3-(2-chloro-5-(pentafluoro-λ^6-sulfanyl)phenyl)urea] showed a melting point of 156 to 157 °C. In addition, on HRI, the “ratio phosphorylated/total HRI” value was “increase caused by I-33 was also statistically significant”. Moreover, the “total HRI” value at HRI (FIG. 2) is “reduction in total HRI”. The eIF2α phosphorylation entry in the data set on eIF2α is “enhanced eIF2α phosphorylation to values similar to those achieved by BTdCPU exposure”.
With `O=C(Nc1cccc(S(F)(F)(F)(F)F)c1)Nc1ccc2nnsc2c1` [compound I-26, 1-(Benzo[d][1,2,3]thiadiazol-6-yl)-3-(3-(pentafluoro-λ^6-sulfanyl)phenyl)urea], the melting point was 229 to 230 °C. At HRI, the “ratio phosphorylated/total HRI” value is on record as “increased the ratio phosphorylated/total HRI”. In the data set with FGF21, the “FGF21 expression compared with BTCtFPU” value is given as “higher expression in FGF21 than BTCtFPU” and the “FGF21 expression compared with BTdCPU” value was “higher increase in FGF21 expression than that observed for compound BTdCPU”. Moreover, the eIF2α phosphorylation entry with eIF2α was “marked increase in eIF2α phosphorylation, higher than the observed with BTdCPU”.
In the case of `O=C(Nc1ccc(S(F)(F)(F)(F)F)cc1)Nc1ccc2nnsc2c1` [compound I-25, 1-(Benzo[d][1,2,3]thiadiazol-6-yl)-3-(4-(pentafluoro-λ^6-sulfanyl)phenyl)urea], the melting point was in the range of 274 to 275 °C. Further, the “ratio phosphorylated/total HRI” value at HRI was “increased the ratio phosphorylated/total HRI”.
With `O=C(Nc1cccc(S(F)(F)(F)(F)F)c1)Nc1cccc(S(F)(F)(F)(F)F)c1` [compound I-36, 1,3-Bis(3-(pentafluoro-λ^6-sulfanyl)phenyl)urea], in the data set on FGF21, the “FGF21 expression compared with BTCtFPU” value is reported as “significant higher increase than compound BTCtFPU” and the “FGF21 expression compared with BTdCPU” value is reported as “significant higher increase in FGF21 expression than compound BTdCPU”.
In turn, `O=C(Nc1ccc2nnsc2c1)Nc1cccc(S(F)(F)(F)(F)F)c1Cl` [compound I-28, 1-(Benzo[d][1,2,3]thiadiazol-6-yl)-3-(2-chloro-3-(pentafluoro-λ^6-sulfanyl)phenyl)urea] came in with a melting point of 225 °C. Moreover, the “ratio phosphorylated/total HRI” value at HRI is reported as “increased the ratio phosphorylated/total HRI”. Further, the eIF2α phosphorylation result in the data set with eIF2α was “marked increase in eIF2α phosphorylation, higher than the observed with BTdCPU”.
Turning to `O=C(Nc1ccc(Cl)c(S(F)(F)(F)(F)F)c1)Nc1ccc2nnsc2c1` [compound I-29, 1-(Benzo[d][1,2,3]thiadiazol-6-yl)-3-(4-chloro-3-(pentafluoro-λ^6-sulfanyl)phenyl)urea], the melting point fell in the range of 213 to 214 °C. Further, the “ratio phosphorylated/total HRI” value at HRI is “increased the ratio phosphorylated/total HRI”. The “FGF21 expression compared with BTdCPU” value in the data set on FGF21 is on record as “higher increase in FGF21 expression than that observed for compound BTdCPU”. Also, the eIF2α phosphorylation result in the data set with eIF2α is recorded as “marked increase in eIF2α phosphorylation, higher than the observed with BTdCPU”.
Regarding `O=C(Nc1cc(S(F)(F)(F)(F)F)ccc1Cl)Nc1cc(S(F)(F)(F)(F)F)ccc1Cl` [compound I-32, 1,3-Bis(2-chloro-5-(pentafluoro-λ^6-sulfanyl)phenyl)urea], the melting point was in the range of 227 to 228 °C.
